# Test system: vaccinia virus
# Experiment: microbe, parasite or virus in culture
# Type: cell-based
# Details: Orthopoxvirus vaccinia, BSC-40, in Chlorocebus sabaeus, read-out: EC50 (inhibition of viral replication)
row,SMILES,EC50 [nM]
1,CC(C)C(=O)Nc1cc(C(=O)N[C@H](C)c2ccc(F)cc2)cc(-c2c[nH]c(-c3cc4ccccc4cn3)n2)c1 [Example 1],≤ 500
2,"C[C@@H](NC(=O)c1cc(Cl)cc(-c2c[nH]c(-c3cc4ccccc4cn3)n2)c1)c1ccc(F)cc1 [Example 5, N-[(1R)-1-(4-fluorophenyl)ethyl]-3-(2-isoquinoline-3-yl-1H-imidazol-4-yl)-5-chlorobenzamide]",≤ 500
3,"C[C@@H](NC(=O)c1cccc(-c2c[nH]c(-c3cc4ccccc4cn3)n2)c1)c1ccc(F)cc1 [Example 6, N-[(1R)-1-(4-fluorophenyl)ethyl]-3-(2-isoquinoline-3-yl-1H-imidazol-4-yl)benzamide]",≤ 500
4,C[C@@H](NC(=O)c1cc(NC(=O)C(C)(C)C)cc(-c2c[nH]c(-c3cc4ccccc4cn3)n2)c1)c1ccc(F)cc1 [Example 15],≤ 500
5,"C[C@@H](NC(=O)c1cc(NC(=O)C(C)(C)F)cc(-c2c[nH]c(-c3cc4ccccc4cn3)n2)c1)c1ccc(F)cc1 [Example 17, N-[(1R)-1-(4-fluorophenyl)ethyl]-3-(2-isoquinoline-3-yl-1H-imidazol-4-yl)-5-(2-fluoroisobutyrylamino)benzamide]",≤ 500

# — US20070219239A1, “Nitrogen-containing heterocycle derivatives, pharmaceutical compositions, and methods of use thereof as antiviral agents” (priority 2006, published 2007)
